These results are taken from EP2865421A1, “Bitter taste receptor agonists for topical use” (Albert-Ludwigs-Universität Freiburg, priority 2013, dated 2015).

The target of data set [1] is T1, T2R38 (Homo sapiens, UniProt P59533, A49P/I296V).
T1 construct: endogenous in cells; host or cells: JEG-3 (human placental cell line)
T1 sequence (P59533 1-333 A49P/I296V): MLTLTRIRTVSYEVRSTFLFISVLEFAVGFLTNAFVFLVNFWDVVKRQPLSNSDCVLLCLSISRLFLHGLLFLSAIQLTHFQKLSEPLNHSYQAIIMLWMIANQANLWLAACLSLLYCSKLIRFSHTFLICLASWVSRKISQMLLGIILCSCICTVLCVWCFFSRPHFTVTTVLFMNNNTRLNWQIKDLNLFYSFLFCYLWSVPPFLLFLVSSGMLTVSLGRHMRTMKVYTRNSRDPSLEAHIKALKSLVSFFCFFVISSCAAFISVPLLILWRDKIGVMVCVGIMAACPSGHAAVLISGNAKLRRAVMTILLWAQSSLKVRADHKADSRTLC
Put plainly: PTC-induced calcium influx in taster cell line JEG-3 and its inhibition by probenecid. The class given is cell-based. Here is the method:
Intracellular Ca^2+ concentration measurements in single cells were carried out using the fluorescence indicator fura-2-am (Invitrogen). Cells were washed with a buffer containing 130 mM NaCl, 5 mM KCI, 10 mM HEPES, 10 mM Glucose and 1 mM CaCl2 adjusted to pH 7.4 and loaded with 2 µM fura-2-am and 0.04% Pluronic F-127 (Invitrogen) for 30 min. After rinsing twice, cells were allowed to de-esterify fura-2-am for 30 min. Measurements were performed with a monochromator-based imaging system attached to an inverted microscope (Axiovert S100, Zeiss). Fluorescence was excited at 340 and 380 nm and emission measured at 510 nm. After 60s, cells were stimulated with various concentrations of diphenidol or amarogentin, 100 µM PTC or the respective solvent control. T2R38 receptor inhibition was performed by pre-incubation of JEG-3 cells for 1h with the T2R38 antagonist probenecid (1 mM) before PTC stimulation. After correction of background fluorescence, the fluorescence ratio was calculated using Axiovision software.

In data set [2] the test system is keratinocyte cell line HaCaT. As to the kind of experiment: IL-6 and MMP-1 release from HaCaT stimulated with histamine and IFN-γ (ELISA). The class given is cell-based, human. As to conditions: histamine + IFN-γ (200U/ml), 24 h, amarogentin 136 µM, azelastine 24 µM (Figure 15B). Here is the method: The Keratinocyte cell line HaCaT (2x10^5 cells /400 µl/well) were plated in 48 well flat bottom Falcon cell culture plates from Becton Dickinson and then stimulated with histamine (100 µl) and TNF-α (25 ng/ml) or IFNγ (200U/ml) for 24 h. Some cells were pre-incubated for 30 min with amarogentin (136 µM, Phytolab), diphenidol (136 µM, Santa Cruz) or azelastine (24 µM, Sigma) as indicated. The supernatants were collected for further assays. TNF-α, IL-6, IL-8 and MMP-1 release into the supernatant fluid 24 h after cell stimulation (either LAD-2 oder HaCaT cells) were measured by Enzyme-Linked Immunosorbent Assay (ELISA) using a commercial kit from R&D Systems according to the manual instructions.
A general note: ELISA stands for enzyme-linked immunosorbent assay.

Data set [3] relates to LAD-2 human mast cells. Put plainly: Degranulation assay: histamine release from SP-stimulated LAD-2 mast cells (ELISA). The class given is cell-based. As to conditions: SP 2 µM, 1 h, 30 min pre-incubation, amarogentin 136 µM, azelastine 24 µM (Figure 14A). As to the method: (§1) LAD-2 human mast cells (obtained from Dr. A. Kirshenbaum NIH) were cultured in serum-free media (StemPro-34, Gibco, Germany) supplemented with 2mM L-glutamine and 100 ng/ml rhSCF (recombinant human stem cell factor; Cell signaling technologies). The human keratinocyte cell line HaCaT was cultured in Dulbecco's modified essential medium (DMEM; Invitrogen) containing 10% fetal calf serum (FCS; PAA, Pasching, Austria) at 37 °C in a humidified atmosphere with 5% CO2. LAD-2 cells were washed with PBS and resuspended in complete medium. LAD-2 cells (2x10^5 cells /400 µl/well) were plated in 48 well flat bottom Falcon cell culture plates from Becton Dickinson and then stimulated with SP (2 µM, Sigma-Aldrich) for 1 or 24 h. Some cells were pre-incubated for 30 min with amarogentin (136 µM, Phytolab), diphenidol (136 µM, Santa Cruz) or azelastine (24 µM, Sigma) as indicated. The supernatants were collected for further assays. Mast cell degranulation was assessed by measuring histamine in the supernatant fluid 1 h after cell stimulation with SP (2 µM). Histamine levels were assayed using a Histamine ELISA from IBL international.

For data set [4], the system named is LAD-2 cells. The class given is cell-based, human.
Description: (§3) The method is based on the bioluminescence measurement of ATP that is present in metabolically active cells. Luciferase catalyzes the formation of light from ATP and luciferin. The emitted light intensity is directly proportional to the ATP concentration and is measured using a luminometer (Sirius HT; MWG).
Data set [5] deals with LAD-2 human mast cells. As to the kind of experiment: TNF-α release from SP-stimulated LAD-2 mast cells (ELISA). The class given is cell-based. The following applies: SP 2 µM, 24 h, 30 min pre-incubation, amarogentin 136 µM, diphenidol 136 µM, azelastine 24 µM (Figure 14B). Here is the method:
as §1, with “assays. TNF-α, IL-6, IL-8 and MMP-1 release into” for “assays. Mast cell degranulation was assessed by measuring histamine in”, “fluid 24” for “fluid 1”, “stimulation (either LAD-2 oder HaCaT cells)” for “stimulation with SP (2 µM). Histamine levels”, “were measured by Enzyme-Linked Immunosorbent Assay (ELISA)” for “were assayed”, “a commercial kit” for “a Histamine ELISA”, “from R&D Systems according to the manual instructions.” for “from IBL international.”

The subject of data set [6] is HaCaT keratinocytes. Put plainly: Calcium imaging (fura-2-am) in HaCaT keratinocytes. The following applies: for calcium influx: HaCaT cells. The class given is cell-based, human. As to the method: The human keratinocyte cell line HaCaT, the neuroblastoma cell line SH-SY5Y and the placental cell line JEG-3 were from CLS Cell Lines Service (Heidelberg, Germany) and cultured in Dulbecco's modified essential medium (DMEM; Invitrogen) containing 10% fetal calf serum (FCS; PAA, Pasching, Austria) at 37 °C in a humidified atmosphere with 5% CO2. For double fluorescence stainings the cells were seeded in a four-field chamber slides (Thermo Fisher Scientific GmbH; 1 ×10^5 cells/ml). For calcium imaging experiments, cells were seeded on polylysin (Sigma-Aldrich, Munich, Germany) coated cover slips at a density of 1.5 -2x 10^5. After isolation of human primary keratinocytes (hPK) from skin samples, the cells were incubated for 3 days with calcium (2 mM), amarogentin (100 μM) or diphenidol (100 μM) before RNA isolation and determination of the differentiation markers. Intracellular Ca^2+ concentration measurements in single cells were carried out using the fluorescence indicator fura-2-am (Invitrogen). Cells were washed with a buffer containing 130 mM NaCl, 5 mM KCI, 10 mM HEPES, 10 mM Glucose and 1 mM CaCl2 adjusted to pH 7.4 and loaded with 2 μM fura-2-am and 0.04% Pluronic F-127 (Invitrogen) for 30 min. After rinsing twice, cells were allowed to de-esterify fura-2-am for 30 min. Measurements were performed with a monochromator-based imaging system attached to an inverted microscope (Axiovert S100, Zeiss). Fluorescence was excited at 340 and 380 nm and emission measured at 510 nm. After 60s, cells were stimulated with various concentrations of diphenidol or amarogentin, 100 μM PTC or the respective solvent control. […] receptor inhibition was performed by pre-incubation of JEG-3 cells for 1h with the […] antagonist probenecid (1 mM) before PTC stimulation. After correction of background fluorescence, the fluorescence ratio was calculated using Axiovision software.

For data set [7], the system named is SH-SY5Y neuroblastoma cells. As to the kind of experiment: Calcium imaging (fura-2-am) in SH-SY5Y neuroblastoma cells. The class given is cell-based, human. As to conditions: 100 µM diphenidol, significant, maximum stated for all cell lines (Figure 8). As to the method: (§2) The human keratinocyte cell line HaCaT, the neuroblastoma cell line SH-SY5Y and the placental cell line JEG-3 were from CLS Cell Lines Service (Heidelberg, Germany) and cultured in Dulbecco's modified essential medium (DMEM; Invitrogen) containing 10% fetal calf serum (FCS; PAA, Pasching, Austria) at 37 °C in a humidified atmosphere with 5% CO2. For double fluorescence stainings the cells were seeded in a four-field chamber slides (Thermo Fisher Scientific GmbH; 1 ×10^5 cells/ml). For calcium imaging experiments, cells were seeded on polylysin (Sigma-Aldrich, Munich, Germany) coated cover slips at a density of 1.5 -2x 10^5. After isolation of human primary keratinocytes (hPK) from skin samples, the cells were incubated for 3 days with calcium (2 mM), amarogentin (100 μM) or diphenidol (100 μM) before RNA isolation and determination of the differentiation markers. Intracellular Ca^2+ concentration measurements in single cells were carried out using the fluorescence indicator fura-2-am (Invitrogen). Cells were washed with a buffer containing 130 mM NaCl, 5 mM KCI, 10 mM HEPES, 10 mM Glucose and 1 mM CaCl2 adjusted to pH 7.4 and loaded with 2 μM fura-2-am and 0.04% Pluronic F-127 (Invitrogen) for 30 min. […] Fluorescence was excited at 340 and 380 nm and emission measured at 510 nm. […] After correction of background fluorescence, the fluorescence ratio was calculated using Axiovision software.

The test system of data set [8] is JEG-3 placental cells. Put plainly: Calcium imaging (fura-2-am) in JEG-3 placental cells. The class given is cell-based, human. As to conditions: 100 µM diphenidol, significant, maximum stated for all cell lines (Figure 8). As to the method:
as §2

In data set [9] the test system is HaCaT cells.
Description: as §3
The test system of data set [10] is human primary keratinocytes (hPKs). As to the kind of experiment: Differentiation marker expression in human primary keratinocytes (RT-PCR). The class given is cell-based. The following applies: 3 days, amarogentin 100 µM, diphenidol 100 µM or calcium 2 mM, vs untreated control (Figure 12). As to the method: The human keratinocyte cell line HaCaT, the neuroblastoma cell line SH-SY5Y and the placental cell line JEG-3 were from CLS Cell Lines Service (Heidelberg, Germany) and cultured in Dulbecco's modified essential medium (DMEM; Invitrogen) containing 10% fetal calf serum (FCS; PAA, Pasching, Austria) at 37 °C in a humidified atmosphere with 5% CO2. For double fluorescence stainings the cells were seeded in a four-field chamber slides (Thermo Fisher Scientific GmbH; 1 ×10^5 cells/ml). For calcium imaging experiments, cells were seeded on polylysin (Sigma-Aldrich, Munich, Germany) coated cover slips at a density of 1.5 -2x 10^5. After isolation of human primary keratinocytes (hPK) from skin samples, the cells were incubated for 3 days with calcium (2 mM), amarogentin (100 µM) or diphenidol (100 µM) before RNA isolation and determination of the differentiation markers. Reverse transcription PCR was performed as described (Muller et al.,2008). In brief, total RNA was isolated using the Trizol reagent (Invitrogen) according to the manusfacturer's instruction. […] The PCR primers (20 pmol each) used to amplify keratin 10 (KRT10), INV, TGM and ß-actine were already published (Muller et al., 2008). ß-actine was used as internal loading control. After gel electrophoresis quantification was archived with ImageJ software.

The subject of data set [11] is keratinocyte cell line HaCaT. Put plainly: IL-8 and MMP-1 release from HaCaT stimulated with histamine and TNF-α (ELISA). The following applies: histamine + TNF-α (25 ng/ml), 24 h, amarogentin 136 µM 30 min pre-incubation (Figure 15A). The class given is cell-based, human. As to the method:
The Keratinocyte cell line HaCaT (2x10^5 cells /400 µl/well) were plated in 48 well flat bottom Falcon cell culture plates from Becton Dickinson and then stimulated with histamine (100 µl) and TNF-α (25 ng/ml) or IFNγ (200U/ml) for 24 h. Some cells were pre-incubated for 30 min with amarogentin (136 µM, Phytolab), diphenidol (136 µM, Santa Cruz) or azelastine (24 µM, Sigma) as indicated. The supernatants were collected for further assays.
TNF-α, IL-6, IL-8 and MMP-1 release into the supernatant fluid 24 h after cell stimulation (either LAD-2 oder HaCaT cells) were measured by Enzyme-Linked Immunosorbent Assay (ELISA) using a commercial kit from R&D Systems according to the manual instructions.

On to `CCCN(CCC)S(=O)(=O)c1ccc(C(=O)O)cc1` [probenecid], for which, in data set [1] (1h pre-incubation with probenecid (1 mM), then PTC 100 µM, JEG-3 cells), the PTC-induced calcium currents entry was “reduces PTC-induced calcium currents to solvent level”.
For the compound `CN1CCCC(n2nc(Cc3ccc(Cl)cc3)c3ccccc3c2=O)CC1` (stereo not drawn) [azelastine], in data set [2], the IL-6 production entry was “decreased” and the MMP-1 production result is on record as “decreased”. In [3], the histamine release result is recorded as “inhibits histamine release”. Further, in data set [4], the cytotoxicity entry is reported as “no cytotoxicity”. For the same compound, the “secretion of TNF-α” value in data set [5] is reported as “blocked the secretion of TNF-α”.
As to `OC(CCCN1CCCCC1)(c1ccccc1)c1ccccc1` [diphenidol], the “calcium influx compared to the solvent control” value in [6] (100 µM diphenidol, HaCaT, significant, maximum stated for all cell lines (Figure 8)) is “up to 7 fold”; in data set [7], “up to 7 fold”; in data set [8], “up to 7 fold”. Moreover, the calcium influx result in [6] (diphenidol 30 µM, fura-2 ratio before/after stimulation vs solvent (Figure 11)) is “significant calcium influx”. The cytotoxicity result in data set [9] is “no cytotoxicity”. Moreover, in data set [10], the “expression of the differentiation marker keratin 10, involucrin und transglutaminase” value is given as “increased”. In addition, in [5], the “secretion of TNF-α” value is “blocked the secretion of TNF-α”.
Turning to amarogentin, the calcium influx result in data set [6] (100 µM amarogentin, vs 0.1% EtOH (Figure 11)) is listed as “significant calcium influx”. Also, in data set [2], the IL-6 production entry is “decreased” and the MMP-1 production entry is reported as “decreased”. In addition, the cytotoxicity result in [9] was “no cytotoxicity”. The histamine release entry in data set [3] was “inhibits histamine release”. Moreover, the “expression of the differentiation marker keratin 10, involucrin und transglutaminase” value in data set [10] was “increased”. For the same compound, in [11], the “release of IL-8” value is “reduces the release” and the “release of MMP-1” value is on record as “reduces the release”. In addition, in data set [4], the cytotoxicity result was “no cytotoxicity”. The “secretion of TNF-α” value in data set [5] was “blocked the secretion of TNF-α”.
For `NC(=S)Nc1ccccc1` [PTC, Phenylthiocarbamid], the calcium influx result in data set [1] (PTC 100 µM, JEG-3 cells (PAV taster), vs DMSO 0.05% (Figure 10)) is reported as “induced calcium influx”.
